Several values for one entry are separate records, joined by “and”; a condition that tells them apart may be missing. Equal values may be shown once.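 Growth conditions: 96-well plates. Treatment: test compound, 48 hours, 5 concentrations. Analysis: linear interpolation between bracketing concentrations; unreached endpoints set to highest concentration. GI50: concentration for 50% inhibition of growth.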 Activity calls are given as the source filed them. No stated cut-off is given here; in the data, active = GI50 up to about 1.1 µM and inactive = higher.
Assays:
Test in all cases: NCI-60 cell line screen, 48 h
U-251 = test system: U-251
CCRF-CEM = test system: CCRF-CEM
HOP-62 = test system: HOP-62
SK-OV-3 = test system: SK-OV-3
IGROV-1 = test system: IGROV-1
OVCAR-4 = test system: OVCAR-4
SK-MEL-28 = test system: SK-MEL-28
M14 = test system: M14
RPMI-8226 = test system: RPMI-8226
SR = test system: SR
EKVX = test system: EKVX
K562 = test system: K562
RXF 393 = test system: RXF 393
OVCAR-8 = test system: OVCAR-8
UACC-257 = test system: UACC-257
SF-295 = test system: SF-295
TK-10 = test system: TK-10
HCC 2998 = test system: HCC 2998
HCT-116 = test system: HCT-116
HCT-15 = test system: HCT-15

Structure (SMILES) | GI50 (U-251) | GI50 (CCRF-CEM) | GI50 (HOP-62) | GI50 (SK-OV-3) | GI50 (IGROV-1) | GI50 (OVCAR-4) | GI50 (SK-MEL-28) | GI50 (M14) | GI50 (RPMI-8226) | GI50 (SR) | GI50 (EKVX) | GI50 (K562) | GI50 (RXF 393) | GI50 (OVCAR-8) | GI50 (UACC-257) | GI50 (SF-295) | GI50 (TK-10) | GI50 (HCC 2998) | GI50 (HCT-116) | GI50 (HCT-15) [µM]
COc1ccc(-c2cc(-c3cc(C)ccc3O)nc(O)n2)cc1 | 30.7 µM (inactive) | > 100 µM (inactive) | 22.6 µM (inactive) | 44.4 µM (inactive) | > 100 µM (inactive) | > 100 µM (inactive) | > 100 µM (inactive) | > 100 µM (inactive) | > 100 µM (inactive) | > 100 µM (inactive) | 7.11 µM (inactive) | > 100 µM (inactive) | 32.6 µM (inactive) | 74.8 µM (inactive) | > 100 µM (inactive) | 41 µM (inactive) | 40.8 µM (inactive) | > 100 µM (inactive) | 77.1 µM (inactive) | 
CC[C@H](C)c1occ2c(O)c(C(=O)O)c(=O)cc-2c1C | 28.5 µM (inactive) | 17.5 µM (inactive) | 24.9 µM (inactive) | 26.1 µM (inactive) | 18.6 µM (inactive) | 24.8 µM (inactive) |  | 31.5 µM (inactive) | 30.7 µM (inactive) | 21.9 µM (inactive) | 30.8 µM (inactive) | 29.1 µM (inactive) | 15.5 µM (inactive) | 19.2 µM (inactive) | 30.3 µM (inactive) | 31.3 µM (inactive) | 40.8 µM (inactive) | 21.1 µM (inactive) | 18.8 µM (inactive) | 16.7
CC1(C)OC(CP(c2ccccc2)c2ccccc2)C(CP(c2ccccc2)c2ccccc2)O1 (stereo not given) | 0.191 µM (active) | 0.794 µM (active) | 0.418 µM (active) | 3.55 µM (inactive) | 0.222 µM (active) | 0.986 µM (active) | > 28.2 µM (inactive) | 1.79 µM (inactive) | 1.17 µM (inactive) | 0.552 µM (active) | 0.914 µM (active) | 0.372 µM (active) | 0.857 µM (active) | 0.741 µM (active) |  | 0.544 µM (active) | > 19.8 µM (inactive) | 0.774 µM (active) | 0.165 µM (active) | 3.22
N#Cc1c(-c2ccc([N+](=O)[O-])cc2)cc(-c2ccc(Nc3ccnc4cc(Cl)ccc34)cc2)nc1N | 1.84 µM (inactive) | 1.11 µM (active) | 9.46 µM (inactive) | 32 µM (inactive) | 3.22 µM (inactive) | 2.82 µM (inactive) | 6.25 µM (inactive) | 21.1 µM (inactive) | 5.02 µM (inactive) | 0.399 µM (active) | 16.9 µM (inactive) | 4.56 µM (inactive) | 17.4 µM (inactive) | 2.19 µM (inactive) | 26.5 µM (inactive) | 19 µM (inactive) | 25.9 µM (inactive) | 11.4 µM (inactive) | 2.3 µM (inactive) | 2.76
O=C(O)CCCc1ccc2c(c1)CC1(C2)Cc2cc3c(cc2C1)CCCC3 | 16.7 µM (inactive) | 11.6 µM (inactive) | 1.98 µM (inactive) | 24.7 µM (inactive) | 20 µM (inactive) | 19.5 µM (inactive) |  | 15.2 µM (inactive) | 28 µM (inactive) | 18.4 µM (inactive) | > 100 µM (inactive) | 11.2 µM (inactive) | 13.2 µM (inactive) | 16.5 µM (inactive) | 37.7 µM (inactive) | 23.9 µM (inactive) | 42.7 µM (inactive) | 19.8 µM (inactive) | 2.56 µM (inactive) | 8.3
NC(=O)C(Nc1ccc(Cl)cc1)c1cc2cc(Br)ccc2nc1Cl (stereo not given) |  | 23.8 µM (inactive) | > 50 µM (inactive) | > 50 µM (inactive) | 17.6 µM (inactive) | > 50 µM (inactive) | 48 µM (inactive) | > 50 µM (inactive) | 27.8 µM (inactive) | 18.9 µM (inactive) | 18.6 µM (inactive) | 20.5 µM (inactive) | 41.1 µM (inactive) | > 50 µM (inactive) | > 50 µM (inactive) | > 50 µM (inactive) | 19.9 µM (inactive) | > 50 µM (inactive) | > 50 µM (inactive) | > 50
O=C(Nc1nc2ccccc2n1Cc1ccc(Cl)cc1)NC12CC3CC(CC(C3)C1)C2 | 20.7 µM (inactive) | 76.7 µM (inactive) | 17.1 µM (inactive) | 16.2 µM (inactive) | 41 µM (inactive) | 8.99 µM (inactive) | 16 µM (inactive) | 25 µM (inactive) | 48.9 µM (inactive) | 27.9 µM (inactive) | 32.7 µM (inactive) | 32.3 µM (inactive) | 20.5 µM (inactive) |  | 28.2 µM (inactive) | 10.9 µM (inactive) | 32.5 µM (inactive) | > 100 µM (inactive) | 19.4 µM (inactive) | 71.6
COC(=O)C1(C(=O)OC)N=C(C)OC1C(C)C (stereo not given) | > 100 µM (inactive) | > 100 µM (inactive) | > 100 µM (inactive) | > 100 µM (inactive) |  | > 100 µM (inactive) | > 100 µM (inactive) | > 100 µM (inactive) | > 100 µM (inactive) | > 100 µM (inactive) | > 100 µM (inactive) | > 100 µM (inactive) | > 100 µM (inactive) | > 100 µM (inactive) | > 100 µM (inactive) | > 100 µM (inactive) | > 100 µM (inactive) | > 100 µM (inactive) | > 100 µM (inactive) | > 100
CC1=C(CO)C(=O)O[C@@H]([C@@H](CO)[C@H]2CCC3C4C[C@@H](O)[C@@]5(O)CC=CC(=O)[C@]5(C)C4CC[C@@]32C)C1 (stereo not given in full) |  | 34.1 µM (inactive) | 23.5 µM (inactive) | > 100 µM (inactive) | > 100 µM (inactive) | 91.8 µM (inactive) |  | 53.7 µM (inactive) | 34.3 µM (inactive) | 34.9 µM (inactive) | > 100 µM (inactive) | 31.8 µM (inactive) | 15.2 µM (inactive) | 73.1 µM (inactive) | 58.6 µM (inactive) | > 100 µM (inactive) | > 100 µM (inactive) | 29.2 µM (inactive) | 37.2 µM (inactive) | 32
COc1ccc(-c2c(C#N)c(N)n(C3OC(CO)C(O)C(O)C3O)c(=S)c2C#N)cc1 (stereo not given) | > 100 µM (inactive) | > 100 µM (inactive) | > 100 µM (inactive) and 51.9 µM (inactive) | > 100 µM (inactive) | 72.1 µM (inactive) | > 100 µM (inactive) and 67.9 µM (inactive) | > 100 µM (inactive) | > 100 µM (inactive) | > 100 µM (inactive) | > 100 µM (inactive) | 66.2 µM (inactive) | > 100 µM (inactive) | > 100 µM (inactive) | > 100 µM (inactive) | > 100 µM (inactive) |  | > 100 µM (inactive) | > 100 µM (inactive) | > 100 µM (inactive) | > 100
COc1cc2c(cc1C[N+](C)(C)CSc1ccccc1)-c1ccccc1CC2 | 4.14 µM (inactive) | 3.64 µM (inactive) | 11.4 µM (inactive) | 12.6 µM (inactive) | 2.47 µM (inactive) | 5.98 µM (inactive) | 4.31 µM (inactive) | 2.07 µM (inactive) | 1.57 µM (inactive) | 2.01 µM (inactive) | 10.6 µM (inactive) | 2.18 µM (inactive) | 6.53 µM (inactive) | 3.9 µM (inactive) | 2.52 µM (inactive) | 12.2 µM (inactive) | 8.77 µM (inactive) | 4.31 µM (inactive) | 2.24 µM (inactive) | 16.5
